Reference: ChEMBL document CHEMBL1149662, “Design and synthesis of a library of tertiary amides: evaluation as mimetics of the melanocortins' active core” (Bioorg Med Chem, 2007)
Calls of active or inactive are those of the source. No cut-off for these calls is given here.

Assays:
[1] = molecular target: Melanocyte-stimulating hormone receptor (Mus musculus) (UniProt Q01727); assay: Antagonist activity MC1 receptor in mouse B16 cells assessed as inhibition of alpha-MSH-induced cAMP accumulation at 100 uM; type: functional, cell-based
Chain of Melanocyte-stimulating hormone receptor (Mus musculus) (Q01727 whole entry, looked up): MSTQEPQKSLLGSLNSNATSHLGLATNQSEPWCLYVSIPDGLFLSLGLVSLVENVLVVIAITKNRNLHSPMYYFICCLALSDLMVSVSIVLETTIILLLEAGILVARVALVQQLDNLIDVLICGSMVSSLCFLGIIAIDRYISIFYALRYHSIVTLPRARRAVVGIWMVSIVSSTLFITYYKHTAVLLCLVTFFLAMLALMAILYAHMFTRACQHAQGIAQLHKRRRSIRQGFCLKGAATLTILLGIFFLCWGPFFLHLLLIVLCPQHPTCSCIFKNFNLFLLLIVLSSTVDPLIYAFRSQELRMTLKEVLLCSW

Melanocortin receptor 3 [2] = molecular target: T1, Melanocortin receptor 3 (Homo sapiens, UniProt P41968); assay: Antagonist activity at MC3 receptor expressed in COS1 cells assessed as inhibition of alpha-MSH-induced cAMP accumulation at 100 uM; type: functional, cell-based; conditions: COS-1
T1 sequence (P41968 whole entry): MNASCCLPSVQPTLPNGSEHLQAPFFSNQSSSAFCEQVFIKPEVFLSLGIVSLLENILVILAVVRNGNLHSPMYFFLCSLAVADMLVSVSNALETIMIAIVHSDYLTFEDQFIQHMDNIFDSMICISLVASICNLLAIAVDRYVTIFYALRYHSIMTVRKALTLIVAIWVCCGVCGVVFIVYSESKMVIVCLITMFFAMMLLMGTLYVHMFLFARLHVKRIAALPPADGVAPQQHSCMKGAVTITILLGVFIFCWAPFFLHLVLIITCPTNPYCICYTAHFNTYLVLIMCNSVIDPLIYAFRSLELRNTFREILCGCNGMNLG

Melanocortin receptor 4 [3] = molecular target: T2, Melanocortin receptor 4 (Homo sapiens, UniProt P32245); assay: Antagonist activity at MC4 receptor expressed in COS1 cells assessed as inhibition of alpha-MSH-induced cAMP accumulation at 100 uM; type: functional, cell-based; conditions: COS-1
T2 sequence (P32245 whole entry): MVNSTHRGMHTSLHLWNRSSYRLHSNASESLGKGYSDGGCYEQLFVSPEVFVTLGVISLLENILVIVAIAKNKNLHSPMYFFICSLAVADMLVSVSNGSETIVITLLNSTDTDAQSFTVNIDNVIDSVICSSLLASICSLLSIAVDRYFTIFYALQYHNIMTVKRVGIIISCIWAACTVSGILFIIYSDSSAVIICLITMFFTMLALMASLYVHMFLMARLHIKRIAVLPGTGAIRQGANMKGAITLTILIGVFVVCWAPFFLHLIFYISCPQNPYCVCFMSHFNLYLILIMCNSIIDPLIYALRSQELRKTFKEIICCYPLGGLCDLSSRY

Melanocortin receptor 5 [4] = molecular target: T3, Melanocortin receptor 5 (Homo sapiens, UniProt P33032); assay: Antagonist activity at MC5 receptor expressed in COS1 cells assessed as inhibition of alpha-MSH-induced cAMP accumulation at 100 uM; type: functional, cell-based; conditions: COS-1
T3 sequence (P33032 whole entry): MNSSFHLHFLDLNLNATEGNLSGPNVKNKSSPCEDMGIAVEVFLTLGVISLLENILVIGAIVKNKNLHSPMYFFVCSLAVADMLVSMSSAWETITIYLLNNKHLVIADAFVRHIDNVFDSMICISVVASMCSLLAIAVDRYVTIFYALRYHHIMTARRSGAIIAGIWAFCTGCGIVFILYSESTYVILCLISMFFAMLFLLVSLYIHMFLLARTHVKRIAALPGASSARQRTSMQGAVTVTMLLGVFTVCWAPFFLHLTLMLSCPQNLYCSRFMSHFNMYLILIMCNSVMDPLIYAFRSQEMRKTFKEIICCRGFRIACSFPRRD

[5] = molecular target: Melanocyte-stimulating hormone receptor (Mus musculus, UniProt Q01727); assay: Displacement of [125I]NDP-MSH from MC1 receptor in mouse B16 cells; type: cell-based
Chain of Melanocyte-stimulating hormone receptor (Q01727 whole entry): as the sequence (Q01727 whole entry, looked up) above

Melanocortin receptor 3 [6] = molecular target: T1, Melanocortin receptor 3; assay: Displacement of [125I]NDP-MSH from human recombinant MC3 receptor expressed in Sf9 cells
Melanocortin receptor 4 [7] = molecular target: T2, Melanocortin receptor 4; assay: Displacement of [125I]NDP-MSH from human recombinant MC4 receptor expressed in Sf9 cells
Melanocortin receptor 5 [8] = molecular target: T3, Melanocortin receptor 5; assay: Displacement of [125I]NDP-MSH from human recombinant MC5 receptor expressed in Sf9 cells
[9] = Selectivity for mouse MC1 receptor over human MC3 receptor
[10] = Selectivity for mouse MC1 receptor over human MC4 receptor
[11] = Selectivity for mouse MC1 receptor over human MC5 receptor

Activity [1] | Activity (Melanocortin receptor 3 [2]) | Activity (Melanocortin receptor 4 [3]) | Activity (Melanocortin receptor 5 [4]) | Ki [5] [µM] | Ki (Melanocortin receptor 3 [6]) [µM] | Ki (Melanocortin receptor 4 [7]) [µM] | Ki (Melanocortin receptor 5 [8]) [µM] | Ratio [9] | Ratio [10] | Ratio [11] | SMILES
Active | Active | Active | Active |  |  |  |  |  |  |  | N=C(N)NCCCCN(Cc1ccc2ccccc2c1)C(=O)CCc1c[nH]c2ccccc12
 |  |  |  | 1.2 | 24 | 17 | 40 | 10 | 10 | 10 | NCCCCCCCCN(C/C=C/c1ccccc1)C(=O)CCc1c[nH]c2ccccc12
Active | Active | Active | Active | 15 | 63 | 111 | 16 |  |  |  | NCCCCN(Cc1ccc2ccccc2c1)C(=O)Cc1c[nH]c2ccccc12
Active | Active | Active | Active | 12 | 53 | 16 | 13 |  |  |  | N=C(N)NCCCN(Cc1ccc2ccccc2c1)C(=O)CCc1c[nH]c2ccccc12
Active | Active | Active | Active | 3.7 | 27 | 8.1 | 8 |  |  |  | NCCCCCN(C/C=C/c1ccccc1)C(=O)CCc1c[nH]c2ccccc12
 |  |  |  | 2.4 | 37 | 33 | 25 | 10 | 10 | 10 | NCCCN(C(=O)Cc1c[nH]c2ccccc12)C1CCc2ccccc2C1 (stereo not given)
 |  |  |  | 1.6 | 29 | 27 | 25 | 10 | 10 | 10 | NCCN(C(=O)Cc1ccc2ccccc2c1)C1CCc2ccccc2C1 (stereo not given)
 |  |  |  | 1.9 | 45 | 33 | 32 | 10 | 10 | 10 | NCc1cccc(CN(Cc2ccccc2)C(=O)CCCc2c[nH]c3ccccc23)c1
 |  |  |  | 0.61 | 21 | 6 | 3.2 |  |  |  | NC1CCC(CC2CCC(N(C/C(Cl)=C/c3ccccc3)C(=O)CCCc3c[nH]c4ccccc34)CC2)CC1 (stereo in doubt; form 5)
 |  |  |  | 6.8 | 63 | 14 | 91 |  |  |  | C/C(=C\c1ccccc1)CN(CCCN)C(=O)CCCc1cccs1
 |  |  |  | 6 | 2.1 | 4.9 | 3.4 |  |  |  | NCCN(C(=O)COc1ccc2ccccc2c1)C1CCC2(CCCCC2)CC1
 |  |  |  | 9.3 | 44 | 67 | 89 |  |  |  | C/C(=C\c1ccccc1)CN(CCCN)C(=O)Cc1c[nH]c2ccccc12
 |  |  |  | 6.1 | 25 | 14 | 46 |  |  |  | NCCCCCN(C(=O)CCCc1c[nH]c2ccccc12)C1C2CC3CC(C2)CC1C3 (stereo not given)
 |  |  |  | 4.2 | 12 | 4.8 | 12 |  |  |  | NC1CCC(CC2CCC(N(C/C(Cl)=C/c3ccccc3)C(=O)c3cc4cc(OCc5ccccc5)ccc4[nH]3)CC2)CC1 (stereo not given)
Active | Active | Active | Active | 20 | 63 | 161 | 12 |  |  |  | NCCCN(Cc1ccc2ccccc2c1)C(=O)Cc1c[nH]c2ccccc12
 |  |  |  | 11 | 99 | 25 | 176 |  |  |  | N[C@H]1CC[C@H](NC(=O)N[C@H]2CC[C@H](N(Cc3ccccc3)C(=O)CCCc3c[nH]c4ccccc34)CC2)CC1
 |  |  |  | 2.1 | 14 | 2.2 | 9.6 |  |  |  | COC(=O)c1ccc(CN(C(=O)CCCc2c[nH]c3ccccc23)C2CCC(CC3CCC(N)CC3)CC2)cc1 (stereo not given)
Active | Active | Active | Active | 36 | 68 | 140 | 18 |  |  |  | NCCN(Cc1ccc2ccccc2c1)C(=O)Cc1c[nH]c2ccccc12
 |  |  |  | 1.7 | 6.6 | 3.7 | 6.9 |  |  |  | CC1CC(CC2CCC(N(Cc3ccccc3)C(=O)CCCc3c[nH]c4ccccc34)C(C)C2)CCC1N (stereo in doubt; form 3)
 |  |  |  | 10 | 39 | 21 | 34 |  |  |  | NCCCCCN(Cc1ccccc1)C(=O)[C@@H](N)Cc1ccc2ccccc2c1
 |  |  |  | 37 | 162 | 96 | 102 |  |  |  | NCCCCCN(Cc1ccccc1)C(=O)[C@H](N)Cc1ccc([N+](=O)[O-])cc1
 |  |  |  | 5 | 42 | 7.4 | 29 |  |  |  | NCCCCCCCN(C/C(Cl)=C/c1ccccc1)C(=O)CCCc1c[nH]c2ccccc12
 |  |  |  | 1.9 | 23 | 2.4 | 11 |  |  |  | COc1ccc(CN(C(=O)CCCc2c(Cc3ccc(O)cc3)[nH]c3ccccc23)C2CCC(CC3CCC(N)CC3)CC2)cc1OC (stereo not given)

Activity [1] | Activity (Melanocortin receptor 3 [2]) | Activity (Melanocortin receptor 4 [3]) | Activity (Melanocortin receptor 5 [4]) | Ki [5] [µM] | Ki (Melanocortin receptor 3 [6]) [µM] | Ki (Melanocortin receptor 4 [7]) [µM] | Ki (Melanocortin receptor 5 [8]) [µM] | Ratio [9] | Ratio [10] | Ratio [11] | SMILES
 |  |  |  | 3.2 | 2.7 | 10 | 12 |  |  |  | NCCN(C(=O)CCCc1c[nH]c2ccccc12)C1CCC2(CCCCC2)CC1
 |  |  |  | 4.3 | 50 | 8.4 | 40 |  |  |  | N[C@H]1CC[C@H](N(Cc2ccccc2)C(=O)CCCc2c[nH]c3ccccc23)CC1
 |  |  |  | 3.7 | 26 | 19 | 23 |  |  |  | NCCCN(Cc1ccc2ccccc2c1)C(=O)CCCc1c[nH]c2ccccc12
 |  |  |  | 3.6 | 134 | 66 | 27 |  |  |  | NCCN(Cc1ccc2ccccc2c1)C(=O)c1c[nH]c2ccccc12
 |  |  |  | 3.2 | 249 | 4.3 | 85 |  |  |  | CSc1ccc(CN(C(=O)CCCc2c[nH]c3ccccc23)C2CCC(CC3CCC(N)CC3)CC2)cc1 (stereo not given)
 |  |  |  | 7.7 | 16 | 6.2 | 4.6 |  |  |  | NCCCCN(Cc1ccccc1)C(=O)CCCc1c(Cc2ccc(O)cc2)[nH]c2ccccc12
 |  |  |  | 90 | 106 | 165 | 353 |  |  |  | CC(C)N(CCCCN)C(=O)c1c(Cc2ccc(O)cc2)[nH]c2ccccc12
 |  |  |  | 2.3 | 33 | 5.2 | 5.4 |  |  |  | NC1CCC(CC2CCC(N(C/C(Cl)=C/c3ccccc3)C(=O)CCCc3c[nH]c4ccccc34)CC2)CC1 (stereo in doubt; form 3)
Active | Active | Active | Active | 5.1 | 20 | 12 | 34 |  |  |  | NCCCCCN(Cc1ccc2ccccc2c1)C(=O)CCCc1c[nH]c2ccccc12
 |  |  |  | 2.6 | 132 | 2.5 | 23 |  |  |  | COc1ccc(CN(C(=O)CCCc2c(Cc3ccc(O)cc3)[nH]c3ccccc23)C2CCC(CC3CCC(N)CC3)CC2)cc1Br (stereo not given)
 |  |  |  | 2.5 | 27 | 4.4 | 18 |  |  |  | NCC1CCC(CN(Cc2ccccc2)C(=O)CCCc2c[nH]c3ccccc23)CC1 (stereo not given)
 |  |  |  | 2.5 | 25 | 2.6 | 7.2 |  |  |  | NC1CCC(CC2CCC(N(Cc3c(Cl)cccc3Cl)C(=O)CCCc3c[nH]c4ccccc34)CC2)CC1 (stereo not given)
 |  |  |  | 1.5 | 17 | 7.7 | 6.4 |  |  |  | NCc1cccc(CN(Cc2ccc3ccccc3c2)C(=O)CCCc2c[nH]c3ccccc23)c1
 |  |  |  | 15 | 38 | 158 | 13 |  |  |  | CCC(c1ccccc1)N(CCCCN)C(=O)CCc1c[nH]c2ccccc12 (stereo not given)
 |  |  |  | 2.7 | 13 | 3.4 | 27 |  |  |  | N=C(N)NC1CCC(CC2CCC(N(C/C(Cl)=C/c3ccccc3)C(=O)CCCc3c[nH]c4ccccc34)CC2)CC1 (stereo in doubt; form 2)
 |  |  |  | 1.3 | 220 | 2.1 | 10 |  |  |  | Cc1ccc(CN(C(=O)CCCc2c[nH]c3ccccc23)C2CCC(CC3CCC(N)CC3)CC2)cc1 (stereo not given)
 |  |  |  | 2.4 | 32 | 5.4 | 85 |  |  |  | NCCCCN(C/C(Cl)=C/c1ccccc1)C(=O)CCCc1c[nH]c2ccccc12
 |  |  |  | 6.6 | 26 | 14 | 97 |  |  |  | NC1CCC(CC2CCC(N(Cc3ccccc3Cl)C(=O)CCCc3c(Cc4ccc(O)cc4)[nH]c4ccccc34)CC2)CC1 (stereo not given)
 |  |  |  | 3.7 | 1.7 | 2.4 | 3.2 |  |  |  | NCCN(C(=O)[C@H](N)Cc1ccc(Cl)cc1)C1CCC2(CCCCC2)CC1
 |  |  |  | 12 | 50 | 116 | 21 |  |  |  | NC(N)=NCCCCN(Cc1ccc2ccccc2c1)C(=O)CCc1c[nH]c2ccccc12
 |  |  |  | 3.2 | 15 | 6.4 | 4.6 |  |  |  | NCCCCCN(Cc1ccccc1)C(=O)CCCc1c[nH]c2ccccc12
 |  |  |  | 2.6 | 44 | 7.3 | 9.7 |  |  |  | NCc1ccc(CN(C/C=C/c2ccccc2)C(=O)CCCc2c[nH]c3ccccc23)cc1
 |  |  |  | 21 | 65 | 81 | 11 |  |  |  | NCCCN(C/C=C/c1ccccc1)C(=O)CCc1c[nH]c2ccccc12
